# Target: T1, human PAH with the R408W mutation (Homo sapiens, UniProt P00439, R408W)
# T1 construct: expressed in transfected cells
# T1 sequence (P00439 1-452 R408W): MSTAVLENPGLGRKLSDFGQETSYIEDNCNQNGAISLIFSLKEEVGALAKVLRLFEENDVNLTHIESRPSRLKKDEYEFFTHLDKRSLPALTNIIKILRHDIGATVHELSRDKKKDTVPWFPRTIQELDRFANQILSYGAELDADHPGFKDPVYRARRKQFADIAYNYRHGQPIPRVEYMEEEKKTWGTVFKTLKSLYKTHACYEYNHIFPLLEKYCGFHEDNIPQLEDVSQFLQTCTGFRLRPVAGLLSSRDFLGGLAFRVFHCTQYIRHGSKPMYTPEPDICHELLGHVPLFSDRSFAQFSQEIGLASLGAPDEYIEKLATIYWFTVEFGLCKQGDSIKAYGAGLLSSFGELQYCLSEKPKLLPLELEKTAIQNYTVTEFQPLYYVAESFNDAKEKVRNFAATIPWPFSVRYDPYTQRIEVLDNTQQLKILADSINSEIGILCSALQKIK
# Experiment: Cell Based Phenylalanine Flux Assay
# Conditions: A375 cells expressing human R408W PAH; 24 hrs compound incubation; 13C-Tyrosine by LC-MS; average where tested multiple times; read-out: AC50
row,AC50 [µM],SMILES
1,> 5,"Cc1ncoc1C(=O)N1CCCc2[nH]cnc2[C@@H]1c1nc2ccccc2s1 [Example 2130, (R)-(4-(benzo[d]thiazol-2-yl)-7,8-dihydroimidazo[4,5-c]azepin-5(1H,4H,6H)-yl)(4-methyloxazol-5-yl)methanone]"
2,0.5 to 1,"O=C(c1ocnc1C(F)(F)F)N1CCCc2[nH]cnc2[C@H]1c1nc2ccccc2s1 [Example 2131, (S)-(4-(benzo[d]thiazol-2-yl)-7,8-dihydroimidazo[4,5-c]azepin-5(1H,4H,6H)-yl)(4-(trifluoromethyl)oxazol-5-yl)methanone]"
3,1 to 5,"O=C(c1ocnc1C(F)(F)F)N1CCCc2[nH]cnc2[C@@H]1c1nc2ccccc2s1 [Example 2132, (R)-(4-(benzo[d]thiazol-2-yl)-7,8-dihydroimidazo[4,5-c]azepin-5(1H,4H,6H)-yl)(4-(trifluoromethyl)oxazol-5-yl)methanone]"
4,1 to 5,"O=C(c1oc(N2CCOCC2)nc1C(F)(F)F)N1CCCc2[nH]cnc2[C@H]1c1nc2ccccc2s1 [Example 2133, (S)-(4-(benzo[d]thiazol-2-yl)-7,8-dihydroimidazo[4,5-c]azepin-5(1H,4H,6H)-yl)(2-morpholino-4-(trifluoromethyl)oxazol-5-yl)methanone]"
5,1 to 5,"O=C(c1oc(N2CCOCC2)nc1C(F)(F)F)N1CCCc2[nH]cnc2[C@@H]1c1nc2ccccc2s1 [Example 2134, (R)-(4-(benzo[d]thiazol-2-yl)-7,8-dihydroimidazo[4,5-c]azepin-5(1H,4H,6H)-yl)(2-morpholino-4-(trifluoromethyl)oxazol-5-yl)methanone]"
6,< 0.5,"O=C(c1oc(CCC2CC2)nc1C(F)(F)F)N1CCCc2[nH]cnc2[C@H]1c1nc2ccccc2s1 [Example 2135, (S)-(4-(benzo[d]thiazol-2-yl)-7,8-dihydroimidazo[4,5-c]azepin-5(1H,4H,6H)-yl)(2-(2-cyclopropylethyl)-4-(trifluoromethyl)oxazol-5-yl)methanone]"
7,0.5 to 1,"O=C(c1oc(CCC2CC2)nc1C(F)(F)F)N1CCCc2[nH]cnc2[C@@H]1c1nc2ccccc2s1 [Example 2136, (R)-(4-(benzo[d]thiazol-2-yl)-7,8-dihydroimidazo[4,5-c]azepin-5(1H,4H,6H)-yl)(2-(2-cyclopropylethyl)-4-(trifluoromethyl)oxazol-5-yl)methanone]"
8,1 to 5,"O=C(c1oc(C2(O)CCC2)nc1C(F)(F)F)N1CCCc2[nH]cnc2[C@H]1c1nc2ccccc2s1 [Example 2137, (S)-(4-(benzo[d]thiazol-2-yl)-7,8-dihydroimidazo[4,5-c]azepin-5(1H,4H,6H)-yl)(2-(1-hydroxycyclobutyl)-4-(trifluoromethyl)oxazol-5-yl)methanone]"
9,1 to 5,"O=C(c1oc(C2(O)CCC2)nc1C(F)(F)F)N1CCCc2[nH]cnc2[C@@H]1c1nc2ccccc2s1 [Example 2138, (R)-(4-(benzo[d]thiazol-2-yl)-7,8-dihydroimidazo[4,5-c]azepin-5(1H,4H,6H)-yl)(2-(1-hydroxycyclobutyl)-4-(trifluoromethyl)oxazol-5-yl)methanone]"
10,> 5,"O=C(CCc1nccs1)N1CCc2[nH]cnc2[C@H]1c1nccs1 [Example 2139, (S)-3-(thiazol-2-yl)-1-(4-(thiazol-2-yl)-6,7-dihydro-1H-imidazo[4,5-c]pyridin-5(4H)-yl)propan-1-one]"
11,< 0.5,O=C(CCc1nccs1)N1CCc2[nH]cnc2[C@H]1c1ncc(-c2ccccc2)s1 [Example 2141]
12,> 5,"O=C(CCc1nccs1)N1CCc2[nH]cnc2[C@@H]1c1ncc(-c2ccccc2)s1 [Example 2142, (R)-1-(4-(5-phenylthiazol-2-yl)-6,7-dihydro-1H-imidazo[4,5-c]pyridin-5(4H)-yl)-3-(thiazol-2-yl)propan-1-one]"
13,1 to 5,O=C(CCc1nccs1)N1CCc2[nH]cnc2[C@H]1c1nc(-c2ccccc2)cs1 [Example 2143]
14,> 5,"O=C(CCc1nccs1)N1CCc2[nH]cnc2[C@@H]1c1nc(-c2ccccc2)cs1 [Example 2144, (R)-1-(4-(4-phenylthiazol-2-yl)-6,7-dihydro-1H-imidazo[4,5-c]pyridin-5(4H)-yl)-3-(thiazol-2-yl)propan-1-one]"
15,< 0.5,O=C(c1cncs1)N1CCc2[nH]cnc2[C@H]1c1ncc(-c2ccccc2)s1 [Example 2145]
16,> 5,"O=C(c1cncs1)N1CCc2[nH]cnc2[C@@H]1c1ncc(-c2ccccc2)s1 [Example 2146, (R)-(4-(5-phenylthiazol-2-yl)-6,7-dihydro-1H-imidazo[4,5-c]pyridin-5(4H)-yl)(thiazol-5-yl)methanone]"
17,> 5,O=C(CCc1nccs1)N1CCc2[nH]cnc2[C@H]1c1nc(C2CC2)cs1 [Example 2147]
18,1 to 5,O=C(CCc1nccs1)N1CCc2[nH]cnc2[C@H]1c1ncc(Br)s1 [Example 2148]

row,AC50 [µM],SMILES
1,> 5,"O=C(CCc1nccs1)N1CCc2[nH]cnc2[C@@H]1c1ncc(Br)s1 [Example 2149, (R)-1-(4-(5-bromothiazol-2-yl)-6,7-dihydro-1H-imidazo[4,5-c]pyridin-5(4H)-yl)-3-(thiazol-2-yl)propan-1-one]"
2,1 to 5,O=C(CCc1nccs1)N1CCc2[nH]cnc2[C@H]1c1nc(Br)cs1 [Example 2150]
3,0.5 to 1,"Cc1ncoc1C(=O)N1CC2(CC2)c2[nH]cnc2[C@H]1c1nc2ccccc2s1 [Example 2152, (S)-(4′-(benzo[d]thiazol-2-yl)spiro[cyclopropane-1,7′-imidazo[4,5-c]pyridin]-5′(1′H,4′H,6′H)-yl)(4-methyloxazol-5-yl)methanone]"
4,1 to 5,"O=C(c1ccno1)N1CCc2[nH]cnc2[C@H]1c1nc2cc(F)ccc2s1 [Example 2153, (S)-(4-(5-fluorobenzo [d]thiazol-2-yl)-6,7-dihydro-1H-imidazo[4,5-c]pyridin-5(4H)-yl) (iso xazol-5-yl)methanone]"
5,> 5,"O=C(c1ccno1)N1CCc2[nH]cnc2[C@@H]1c1nc2cc(F)ccc2s1 [Example 2154, (R)-(4-(5-fluorobenzo [d]thiazol-2-yl)-6,7-dihydro-1H-imidazo[4,5-c]pyridin-5(4H)-yl)(isoxazol-5-yl)methanone]"
6,1 to 5,O=C(c1cnn2cc(CN3CCOCC3)ccc12)N1CCc2[nH]cnc2[C@H]1c1nc2ccccc2s1 [Example 2155]
7,> 5,"O=C(c1cnn2cc(CN3CCOCC3)ccc12)N1CCc2[nH]cnc2[C@@H]1c1nc2ccccc2s1 [Example 2156, (R)-(4-(benzo[d]thiazol-2-yl)-6,7-dihydro-1H-imidazo[4,5-c]pyridin-5(4H)-yl)(6-(morpholinomethyl)pyrazolo[1,5-a]pyridin-3-yl)methanone]"
8,< 0.5,"[2H][C@@]1(c2nc3ccccc3s2)c2nc[nH]c2CCN1C(=O)c1cnc(-c2cnn(C)c2)s1 [Example 2157, [(4S)-4-(1,3-benzothiazol-2-yl)-4-deuterio-6,7-dihydro-1H-imidazo[4,5-c]pyridin-5-yl]-[2-(1-methylpyrazol-4-yl)thiazol-5-yl]methanone]"
9,> 5,"[2H][C@]1(c2nc3ccccc3s2)c2nc[nH]c2CCN1C(=O)c1cnc(-c2cnn(C)c2)s1 [Example 2158, [(4R)-4-(1,3-benzothiazol-2-yl)-4-deuterio-6,7-dihydro-1H-imidazo[4,5-c]pyridin-5-yl]-[2-(1-methylpyrazol-4-yl)thiazol-5-yl]methanone]"
10,< 0.5,"[2H][C@@]1(c2nc3ccccc3s2)c2nc[nH]c2CCN1C(=O)c1ocnc1C [Example 2159, [(4S)-4-(1,3-benzothiazol-2-yl)-4-deuterio-6,7-dihydro-1H-imidazo[4,5-c]pyridin-5-yl]-(4-methyloxazol-5-yl)methanone]"
11,> 5,"[2H][C@]1(c2nc3ccccc3s2)c2nc[nH]c2CCN1C(=O)c1ocnc1C [Example 2160, [(4R)-4-(1,3-benzothiazol-2-yl)-4-deuterio-6,7-dihydro-1H-imidazo[4,5-c]pyridin-5-yl]-(4-methyloxazol-5-yl)methanone]"
12,0.5 to 1,"[2H]c1nc2c([nH]1)CCN(C(=O)c1cnco1)[C@@H]2c1nc2c(F)cccc2s1 [Example 2161, [(4S)-2-deuterio-4-(4-fluoro-1,3-benzothiazol-2-yl)-1,4,6,7-tetrahydroimidazo[4,5-c]pyridin-5-yl]-oxazol-5-yl-methanone]"
13,1 to 5,O=C(c1cnco1)N1CCc2[nH]cnc2[C@@H]1c1nc2c(F)cccc2s1 [Example 2162]
14,< 0.5,O=C(c1oc(C2CC2)nc1C(F)(F)F)N1CCc2[nH]cnc2[C@H]1c1nc2ccccc2s1 [Example 2163]
15,< 0.5,"O=C(c1oc(C2CC2)nc1C(F)(F)F)N1CCc2[nH]cnc2[C@@H]1c1nc2ccccc2s1 [Example 2164, (R)-(4-(benzo[d]thiazol-2-yl)-6,7-dihydro-1H-imidazo[4,5-c]pyridin-5(4H)-yl)(2-cyclopropyl-4-(trifluoromethyl)oxazol-5-yl)methanone]"
16,< 0.5,O=C(c1oc(N2CCOCC2)nc1C(F)(F)F)N1CCc2[nH]cnc2[C@H]1c1nc2ccccc2s1 [Example 2165]
17,< 0.5,"O=C(c1ocnc1C1CC1)N1CCCC2NC=NC2[C@H]1c1nc2ccccc2s1 (stereo partly drawn) [Example 2167, ((4S)-4-(benzo[d]thiazol-2-yl)-3a,4,6,7,8,8a-hexahydroimidazo[4,5-c]azepin-5(1H)-yl)(4-cyclopropyloxazol-5-yl)methanone]"

# Source: patent US20250171438A1 (Agios Pharmaceuticals, Inc., priority 2022, published 2025)
